The target in one test is T1, ROCK 2 (Homo sapiens, UniProt O75116).
T1 construct: purchased Molecular Devices, Sunnyvale, Calif
Put plainly: Rho kinase assay (IMAP ROCK-II kit, fluorescence polarization). The class given is biochemical. To be noted: substrate 200 nM, ATP 10 μM, 60 min at 23° C. (Polarisation of emitted light reports the rotation of a fluorescent probe.)

Another test deals with ROCK 1 (Homo sapiens, UniProt Q13464). Put plainly: Rho kinase assay (IMAP ROCK-I kit, fluorescence polarization).
Chain of ROCK 1 (Q13464 whole entry, species assumed): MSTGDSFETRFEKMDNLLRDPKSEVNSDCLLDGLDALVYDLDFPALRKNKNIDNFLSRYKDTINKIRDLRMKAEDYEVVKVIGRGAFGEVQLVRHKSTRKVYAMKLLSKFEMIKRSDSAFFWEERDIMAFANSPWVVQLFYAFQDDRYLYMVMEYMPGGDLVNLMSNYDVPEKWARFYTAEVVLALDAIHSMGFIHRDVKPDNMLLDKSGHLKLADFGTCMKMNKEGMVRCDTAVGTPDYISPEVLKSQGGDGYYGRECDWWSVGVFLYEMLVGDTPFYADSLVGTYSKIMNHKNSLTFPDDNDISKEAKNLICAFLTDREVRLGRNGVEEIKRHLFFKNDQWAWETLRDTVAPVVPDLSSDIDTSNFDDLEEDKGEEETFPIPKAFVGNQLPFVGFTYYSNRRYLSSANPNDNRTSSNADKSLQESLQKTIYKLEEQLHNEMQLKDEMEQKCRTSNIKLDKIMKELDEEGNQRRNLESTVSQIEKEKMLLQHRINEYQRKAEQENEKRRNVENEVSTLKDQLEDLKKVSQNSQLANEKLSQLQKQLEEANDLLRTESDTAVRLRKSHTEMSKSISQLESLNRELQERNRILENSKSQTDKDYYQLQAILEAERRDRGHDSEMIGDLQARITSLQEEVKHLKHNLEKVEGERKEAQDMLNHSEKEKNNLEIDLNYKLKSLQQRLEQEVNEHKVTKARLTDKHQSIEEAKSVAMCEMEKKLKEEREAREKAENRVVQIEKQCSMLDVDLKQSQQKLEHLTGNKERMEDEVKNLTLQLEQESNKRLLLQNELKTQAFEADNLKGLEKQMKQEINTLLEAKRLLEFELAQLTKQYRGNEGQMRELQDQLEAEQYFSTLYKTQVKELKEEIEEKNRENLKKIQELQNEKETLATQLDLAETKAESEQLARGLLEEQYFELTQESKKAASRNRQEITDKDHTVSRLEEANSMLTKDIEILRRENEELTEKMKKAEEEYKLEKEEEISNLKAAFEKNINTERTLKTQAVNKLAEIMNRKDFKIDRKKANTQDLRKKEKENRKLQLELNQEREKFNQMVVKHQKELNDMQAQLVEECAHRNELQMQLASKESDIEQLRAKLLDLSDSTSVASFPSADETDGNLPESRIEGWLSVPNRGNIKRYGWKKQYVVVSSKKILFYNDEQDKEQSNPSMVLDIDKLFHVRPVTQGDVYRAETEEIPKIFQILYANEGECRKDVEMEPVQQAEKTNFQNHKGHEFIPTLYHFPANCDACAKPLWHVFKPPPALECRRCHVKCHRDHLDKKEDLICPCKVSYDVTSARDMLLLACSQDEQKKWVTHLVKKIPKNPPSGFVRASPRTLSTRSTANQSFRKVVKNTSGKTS

Counter-ions that a name gives are not always drawn.

T1 sequence (O75116 whole entry, species assumed): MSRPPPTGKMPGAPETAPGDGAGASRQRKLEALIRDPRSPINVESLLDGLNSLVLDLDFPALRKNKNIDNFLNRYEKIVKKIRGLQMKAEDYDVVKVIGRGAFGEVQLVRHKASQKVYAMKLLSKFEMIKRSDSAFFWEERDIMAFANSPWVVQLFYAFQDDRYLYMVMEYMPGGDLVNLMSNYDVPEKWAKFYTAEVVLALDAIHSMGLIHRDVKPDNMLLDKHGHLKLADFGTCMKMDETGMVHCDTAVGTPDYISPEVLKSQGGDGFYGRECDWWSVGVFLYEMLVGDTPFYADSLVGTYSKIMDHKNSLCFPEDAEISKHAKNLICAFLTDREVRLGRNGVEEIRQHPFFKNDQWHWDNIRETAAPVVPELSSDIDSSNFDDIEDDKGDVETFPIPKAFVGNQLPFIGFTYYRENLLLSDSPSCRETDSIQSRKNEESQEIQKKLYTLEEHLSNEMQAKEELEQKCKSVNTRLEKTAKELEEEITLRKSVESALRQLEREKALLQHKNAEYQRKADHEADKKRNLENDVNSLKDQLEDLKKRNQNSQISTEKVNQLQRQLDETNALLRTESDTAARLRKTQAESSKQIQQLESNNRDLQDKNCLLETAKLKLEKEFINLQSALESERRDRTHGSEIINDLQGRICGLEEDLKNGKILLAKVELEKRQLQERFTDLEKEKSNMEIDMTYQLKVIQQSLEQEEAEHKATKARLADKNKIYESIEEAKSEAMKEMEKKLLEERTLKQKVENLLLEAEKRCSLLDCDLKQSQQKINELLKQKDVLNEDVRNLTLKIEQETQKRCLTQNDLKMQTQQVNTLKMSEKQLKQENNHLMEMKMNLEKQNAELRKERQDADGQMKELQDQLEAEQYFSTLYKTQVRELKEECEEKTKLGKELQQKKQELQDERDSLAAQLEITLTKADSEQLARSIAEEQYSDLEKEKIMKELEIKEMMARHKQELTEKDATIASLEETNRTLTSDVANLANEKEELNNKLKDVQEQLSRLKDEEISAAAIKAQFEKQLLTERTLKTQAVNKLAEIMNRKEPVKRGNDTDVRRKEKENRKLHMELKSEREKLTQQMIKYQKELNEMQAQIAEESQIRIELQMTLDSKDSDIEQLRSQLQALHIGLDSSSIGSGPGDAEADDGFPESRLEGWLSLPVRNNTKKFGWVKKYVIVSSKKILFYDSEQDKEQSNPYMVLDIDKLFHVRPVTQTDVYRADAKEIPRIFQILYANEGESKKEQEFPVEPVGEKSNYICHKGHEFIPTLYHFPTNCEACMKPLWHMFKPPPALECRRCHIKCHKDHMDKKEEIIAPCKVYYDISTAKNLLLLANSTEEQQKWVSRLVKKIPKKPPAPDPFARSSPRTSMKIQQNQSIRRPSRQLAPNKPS
Method for ROCK 1: (§1) The rho kinase assays were performed using a Biomek 2000 Robotic Workstation (Beckman Instruments, Palo Alto, Calif.) in a 96-well plate format. The assay was performed utilizing the IMAP ROCK-I and ROCK-II kits (Molecular Devices, Sunnyvale, Calif.) as follows. […] The substrate, enzyme, and ATP dilutions were made with the reaction buffer provided by the vendor. Test compounds were diluted in 10:10 DMSO-ethanol (vol/vol). For the actual assay, the various components were added into black, clear bottom, 96-well plates (Costar, Corning, N.Y.) in a final volume of 20μl per well. After the enzyme reaction (60 min at 23° C.), 60 μl of the binding solution was added per well and incubated for an additional 30 minutes in the dark at 23° C. Fluorescence polarization of the reaction mixtures was then measured on the Analyst™ HT instrument (Molecular Devices, Sunnyvale, Calif.).
Method for ROCK 2: as §1

One may read the IC50 as the concentration at which inhibition is half-maximal. Read a low IC50 as greater potency. Consider `OCc1cnc2ccc(NCc3ccccn3)nn12` [Example 25, (6-(Pyridin-2-ylmethylamino)imidazo[1,2-b]pyridazin-3-yl)methanol hydrochloride], for which the IC50 against ROCK 2 and on ROCK 1 was > 100 µM throughout.

Regarding `CCCC/C=C/c1cnc2ccc(NCCCN(C)C)nn12` [Example 39, (E)-N^1-(3-(Hex-1-enyl)imidazo[1,2-b]pyridazin-6-yl)-N^3,N^3-dimethylpropane-1,3-diamine hydrochloride], the IC50 on ROCK 2 is 0.77 µM; at ROCK 1 it was 1.1 µM.

As to `CCCCCCc1cnc2ccc(NCCCN3CCOCC3)nn12` [Example 17, 3-Hexyl-N-(3-morpholinopropyl)imidazo[1,2-b]pyridazin-6-amine hydrochloride], the IC50 is > 100 µM at ROCK 2 and 28 µM on ROCK 1.

With `C1=C(c2cnc3ccc(NCc4ccccn4)nn23)CCCC1` [Example 21, 3-Cyclohexenyl-N-(pyridin-2-ylmethyl)imidazo[1,2-b]pyridazin-6-amine hydrochloride], the IC50 on ROCK 2 is 200 µM; at ROCK 1 it was > 100 µM.

Consider `CCCC/C=C/c1cnc2ccc(NCc3ccncc3)nn12` [Example 43, (E)-3-(Hex-1-enyl)-N-(pyridin-4-ylmethyl)imidazo[1,2-b]pyridazin-6-amine], for which the IC50 was determined as 11 µM at ROCK 2 and 4.3 µM at ROCK 1.

For `COCCNc1ccc2ncc(C)n2n1` [Example 12, N-(2-Methoxyethyl)-3-methylimidazo[1,2-b]pyridazin-6-amine], the IC50 is 97 µM against ROCK 2 and > 100 µM against ROCK 1.

`CCOCc1cnc2ccc(NCc3ccccn3)nn12` [Example 32, 3-(Ethoxymethyl)-N-(pyridin-2-ylmethyl)imidazo[1,2-b]pyridazin-6-amine hydrochloride]: the IC50 against ROCK 2 and against ROCK 1 was > 100 µM throughout.

As to `CCCC/C=C/c1cnc2ccc(NCCCCO)nn12` [Example 37, (E)-4-(3-(Hex-1-enyl)imidazo[1,2-b]pyridazin-6-ylamino)butan-1-ol hydrochloride], the IC50 was 13 µM against ROCK 2 and 23 µM on ROCK 1.

Regarding `c1n[nH]cc1-c1cnc2ccc(N3CCOCC3)nn12` [Example 3, 4-(3-(1H-Pyrazol-4-yl)imidazo[1,2-b]pyridazin-6-yl)morpholine], the IC50 was determined as 56 µM at ROCK 2 and 12 µM against ROCK 1.

On to `c1n[nH]cc1-c1cnc2ccc(N3CCCNCC3)nn12` [Example 56, 6-Perhydro-1,4-diazepin-1-yl-3-(1H-pyrazol-4-yl)-imidazo[1,2-b]pyridazine dihydrochloride], for which the IC50 on ROCK 2 came to 6.7 µM; at ROCK 1, 18 µM.

On to `CCCC/C=C/c1cnc2ccc(NCCCN3CCN(C)CC3)nn12` [Example 38, (E)-3-(Hex-1-enyl)-N-(3-(4-methylpiperazin-1-yl)propyl)imidazo[1,2-b]pyridazin-6-amine hydrochloride], for which the IC50 at ROCK 2 stood at 97 µM; against ROCK 1 it was 47 µM.

For `Cc1cnc2ccc(NCCCN3CCOCC3)nn12` [Example 16, 3-Methyl-N-(3-morpholinopropyl)imidazo[1,2-b]pyridazin-6-amine fumarate], the IC50 against ROCK 2 and on ROCK 1 was > 100 µM in each case.

`CCCC/C=C/c1cnc2ccc(NCCOC)nn12` [Example 7, (E)-3-(Hex-1-enyl)-N-(2-methoxyethyl)imidazo[1,2-b]pyridazin-6-amine fumarate]: the 50% inhibitory concentration (IC50) against ROCK 2 stood at 20 µM; against ROCK 1, 35 µM.

With `CCCC/C=C/c1cnc2ccc(NCCN(C)C)nn12` [Example 8, (E)-N^1-(3-(Hex-1-enyl)imidazo[1,2-b]pyridazin-6-yl)-N^2,N^2-dimethylethane-1,2-diamine fumarate], the IC50 was 65 µM against ROCK 2 and 58 µM against ROCK 1.

Turning to `COCc1cnc2ccc(NCc3ccccn3)nn12` [Example 34, hydrochloride], the IC50 against ROCK 2 and on ROCK 1 was > 100 µM throughout.

`CCC/C=C/c1cnc2ccc(NCCCN3CCOCC3)nn12` [Example 18, (E)-N-(3-Morpholinopropyl)-3-(pent-1-enyl)imidazo[1,2-b]pyridazin-6-amine hydrochloride]: the IC50 worked out at 88 µM against ROCK 2 and 43 µM on ROCK 1.

Turning to `c1cn2nc(NCCCN3CCOCC3)ccc2n1` [Example 35, N-(3-Morpholinopropyl)imidazo[1,2-b]pyridazin-6-amine hydrochloride], the 50% inhibitory concentration (IC50) against ROCK 2 and on ROCK 1 was > 100 µM throughout.

For the molecule `CCCC/C=C\c1cnc2ccc(NCCCN3CCOCC3)nn12` [Example 27, (Z)-3-(Hex-1-enyl)-N-(3-morpholinopropyl)imidazo[1,2-b]pyridazin-6-amine hydrochloride], the results for the IC50 on ROCK 2 and against ROCK 1 were 88 µM and 43 µM, respectively.

Consider `CCCC/C=C/c1cnc2ccc(NCCN(CC)CC)nn12` [Example 40, (E)-N^1,N^1-Diethyl-N^2-(3-(hex-1-enyl)imidazo[1,2-b]pyridazin-6-yl)ethane-1,2-diamine hydrochloride], for which the IC50 on ROCK 2 and against ROCK 1 was > 100 µM each time.

As to `c1cncc(-c2cnc3ccc(N4CCCNCC4)nn23)c1` [Example 57, 6-Perhydro-1,4-diazepin-1-yl-3-pyridin-3-yl-imidazo[1,2-b]pyridazine trihydrochloride], the IC50 against ROCK 2 stood at 23 µM; on ROCK 1, 63 µM.

With `Clc1cnc2ccc(NCCCN3CCOCC3)nn12` [Example 14, 3-Chloro-N-(3-morpholinopropyl)imidazo[1,2-b]pyridazin-6-amine hydrochloride], inhibition at ROCK 1 was half-maximal at 37 µM (IC50).

`Cc1n[nH]c2ccc(-c3cnc4ccc(N5CCNCC5)nn34)cc12` [Example 52, 3-(3-Methyl-1H-indazol-5-yl)-6-piperazin-1-yl-imidazo[1,2-b]pyridazine trihydrochloride]: the IC50 came to 0.014 µM against ROCK 2 and 0.027 µM on ROCK 1.

As to `CCCCCCc1cnc2ccc(NCc3ccccn3)nn12` [Example 29, 3-Hexyl-N-(pyridin-2-ylmethyl)imidazo[1,2-b]pyridazin-6-amine hydrochloride], the IC50 amounted to 17 µM against ROCK 2 and 42 µM against ROCK 1.

For `CCCCC#Cc1cnc2ccc(NCCCN3CCOCC3)nn12` [Example 26, 3-(Hex-1-ynyl)-N-(3-morpholinopropyl)imidazo[1,2-b]pyridazin-6-amine hydrochloride], the IC50 stood at 5.8 µM at ROCK 2 and 9 µM against ROCK 1.

For the molecule `CCCC/C=C/c1cnc2ccc(N[C@H]3CC[C@H](O)CC3)nn12` [Example 49, Anti-(E)-4-(3-(Hex-1-enyl)imidazo[1,2-b]pyridazin-6-ylamino)cyclohexanol], the IC50 at ROCK 2 stood at 29 µM; at ROCK 1, 13 µM.

On to `COc1ccc(-c2cnc3ccc(NCc4ccccn4)nn23)cc1` [Example 1, 3-(4-Methoxyphenyl)-N-(pyridin-2-ylmethyl)imidazo[1,2-b]pyridazin-6-amine], for which the figures for the IC50 against ROCK 2 and on ROCK 1 were 69 µM and 17 µM, respectively.

For `COCc1cnc2ccc(NCCCN3CCOCC3)nn12` [Example 30, 3-(Methoxymethyl)-N-(3-morpholinopropyl)imidazo[1,2-b]pyridazin-6-amine hydrochloride], the IC50 on ROCK 2 and at ROCK 1 was > 100 µM throughout.

Consider `CCCC/C=C/c1cnc2ccc(NC(CC)CO)nn12` (stereo not drawn) [Example 10, (E)-2-(3-(Hex-1-enyl)imidazo[1,2-b]pyridazin-6-ylamino)butan-1-ol], for which the IC50 is > 100 µM against ROCK 2 and 78 µM against ROCK 1.

In the case of `Cc1cnc2ccc(NCCN(C)C)nn12` [Example 11, N^1,N^1-Dimethyl-N^2-(3-methylimidazo[1,2-b]pyridazin-6-yl)ethane-1,2-diamine], the values for the IC50 against ROCK 2 and against ROCK 1 were 79 µM and 36 µM, respectively.

On to `CCCC/C=C/c1cnc2ccc(NCCO)nn12` [Example 42, (E)-2-(3-(Hex-1-enyl)imidazo[1,2-b]pyridazin-6-ylamino)ethanol hydrochloride], for which the IC50 on ROCK 2 worked out at 34 µM; against ROCK 1, 17 µM.

On to `COc1ccccc1-c1cnc2ccc(NCc3ccccn3)nn12` [Example 2, 3-(2-Methoxyphenyl)-N-(pyridin-2-ylmethyl)imidazo[1,2-b]pyridazin-6-amine fumarate], for which the IC50 at ROCK 2 and against ROCK 1 was > 100 µM in each case.

`OCc1cnc2ccc(NCCCN3CCOCC3)nn12` [Example 24, (6-(3-Morpholinopropylamino)imidazo[1,2-b]pyridazin-3-yl)methanol hydrochloride]: the IC50 against ROCK 2 and at ROCK 1 was > 100 µM throughout.

Regarding `CCCC/C=C/c1cnc2ccc(NCc3cnc(C)cn3)nn12` [Example 44, (E)-3-(Hex-1-enyl)-N-((5-methylpyrazin-2-yl)methyl)imidazo[1,2-b]pyridazin-6-amine], the results for the IC50 on ROCK 2 and against ROCK 1 were 34 µM and 22 µM, respectively.

For `Cc1cnc2ccc(NCc3ccccn3)nn12` [Example 15, 3-Methyl-N-(pyridin-2-ylmethyl)imidazo[1,2-b]pyridazin-6-amine hydrochloride], the IC50 on ROCK 2 came out at 16 µM; on ROCK 1 it was 67 µM.

In the case of `CCCC/C=C/c1cnc2ccc(NCCCCN(C)C)nn12` [Example 46, (E)-N^1-(3-(Hex-1-enyl)imidazo[1,2-b]pyridazin-6-yl)-N^4,N^4-dimethylbutane-1,4-diamine], the IC50 was 8.2 µM at ROCK 2 and 5 µM on ROCK 1.

Consider `CCCC/C=C/c1cnc2ccc(NCCCN)nn12` [Example 48, (E)-N^1-(3-(Hex-1-enyl)imidazo[1,2-b]pyridazin-6-yl)propane-1,3-diamine], for which the results for the IC50 on ROCK 2 and against ROCK 1 were 58 µM and 57 µM, respectively.

`c1cc(-c2cnc3ccc(N4CCCNCC4)nn23)ccn1` [Example 54, 6-(1,4-Diazepan-1-yl)-3-pyridin-4-yl-imidazo [1,2-b]pyridazine hydrochloride]: the IC50 against ROCK 2 was determined as 0.33 µM; against ROCK 1 it was 0.93 µM.

`CCCC/C=C/c1cnc2ccc(NCCCO)nn12` [Example 6, (E)-3-(3-(Hex-1-enyl)imidazo [1,2-b]pyridazin-6-ylamino)propan-1-ol fumarate]: the IC50 on ROCK 2 is 33 µM; against ROCK 1, 30 µM.

(Values after patent publication US7820670B2 (Alcon Research, Ltd., priority 2006, dated 2010).)
